Measurements as given in ChEMBL document CHEMBL1201862, “PubChem BioAssay data set” (2004).
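Grown in 96-well plates, cells were treated for 48 hours with each compound at five concentrations. Insufficient inhibition: endpoint recorded as highest concentration tested. GI50: concentration for 50% inhibition of growth.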 Activity calls are given as the source filed them. Cut-off read from the data, not from the text of the source: active = GI50 up to about 1.1 µM and inactive = higher.

Columns and labels:
Test in all cases: NCI anticancer screen, dose series, 48 h
[1] = tested on: SNB-78
[2] = tested on: M19-MEL
[3] = tested on: RXF 631
[4] = tested on: DLD-1
[5] = tested on: LXFL 529
[6] = tested on: XF498
[7] = tested on: DMS-273
[8] = tested on: HOP-18
[9] = tested on: DMS-114

Structure (SMILES)	GI50 [1]	GI50 [2]	GI50 [3]	GI50 [4]	GI50 [5]	GI50 [6]	GI50 [7]	GI50 [8]	GI50 [9]
COc1cc(/C=C(\NC(=O)c2ccccc2)c2nc3cncnc3[nH]2)cc(OC)c1OC	> 100 µM (inactive)	> 100 µM (inactive)	> 100 µM (inactive)	> 100 µM (inactive)	> 100 µM (inactive)	> 100 µM (inactive)	> 100 µM (inactive)	–	–
O=C(N[C@@H]1C=CCC[C@@H]1c1ccccc1)OCc1ccccc1	32.5 µM (inactive)	21.5 µM (inactive)	–	23.7 µM (inactive)	18.8 µM (inactive)	19 µM (inactive)	16.4 µM (inactive)	19.2 µM (inactive)	21.7 µM (inactive)
Nc1nc(Cl)cc(NCCCCCCCCCCNc2cc(Cl)nc(N)n2)n1	0.0638 µM (active)	7.4 µM (inactive)	5.3 µM (inactive)	6.5 µM (inactive)	1.27 µM (inactive)	1.25 µM (inactive)	4.35 µM (inactive)	58.3 µM (inactive)	–
CC(C)COC(=O)c1ccc(/N=C\c2ccc(/C=N/c3ccc(C(=O)OCC(C)C)cc3)cc2)cc1	> 100 µM (inactive)	> 100 µM (inactive)	> 100 µM (inactive)	> 100 µM (inactive)	> 100 µM (inactive)	> 100 µM (inactive)	> 100 µM (inactive)	–	–
C#CCN(Cc1ccc2nc(-c3ccccc3)c(Cl)nc2c1)c1cc(OC)c(OC)c(OC)c1	> 100 µM (inactive)	> 100 µM (inactive)	> 100 µM (inactive)	> 100 µM (inactive)	> 100 µM (inactive)	–	99.5 µM (inactive)	> 100 µM (inactive)	14.3 µM (inactive)
CCOc1ccc(-c2oc(/C=N/NS(=O)(=O)c3ccc(C)cc3)c([N+](=O)[O-])c2-c2ccc(OCC)cc2)cc1	9.73 µM (inactive)	3.72 µM (inactive)	–	4.98 µM (inactive)	9.93 µM (inactive)	–	8.41 µM (inactive)	–	3.21 µM (inactive)
C[C@@]1(Cc2ccccc2)C(=O)N2[C@@H](CO)C(c3ccccc3)O[C@]2(C)c2ccccc21 (some centres undefined)	> 100 µM (inactive)	> 100 µM (inactive)	–	> 100 µM (inactive)	> 100 µM (inactive)	–	> 100 µM (inactive)	–	> 100 µM (inactive)
O=C1Cc2ccccc2N1/N=C\c1ccc(O)cc1	> 100 µM (inactive)	> 100 µM (inactive)	> 100 µM (inactive)	–	–	> 100 µM (inactive)	> 100 µM (inactive)	> 100 µM (inactive)	21.8 µM (inactive)
CN(C)CC(/C(Cc1ccccc1)=N\NC(=O)c1ccncc1)c1ccccc1 (centres undefined)	–	30.1 µM (inactive)	40.7 µM (inactive)	49.1 µM (inactive)	36.1 µM (inactive)	29.4 µM (inactive)	–	–	22.5 µM (inactive)
COc1c(Br)cc(Br)c(OC)c1-c1[nH]c(Br)c(Br)c1Br	11.1 µM (inactive)	10.2 µM (inactive)	6.64 µM (inactive)	5.26 µM (inactive)	–	2.27 µM (inactive)	6.9 µM (inactive)	2.54 µM (inactive)	4.8 µM (inactive)
NCCNC(=O)c1cccc2cc3ccccc3nc12	8.63 µM (inactive)	1.79 µM (inactive)	4.47 µM (inactive)	2.77 µM (inactive)	4.95 µM (inactive)	2.04 µM (inactive)	2.3 µM (inactive)	14.7 µM (inactive)	1.77 µM (inactive)
CNc1nc(N)cc(O)n1	> 100 µM (inactive)	> 100 µM (inactive)	–	> 100 µM (inactive)	> 100 µM (inactive)	–	> 100 µM (inactive)	–	> 100 µM (inactive)
CC(=O)OCC(=O)[C@@]1(O)CC[C@H]2[C@@H]3C[C@H](C)C4=CC(=O)C=C[C@]4(C)[C@@]3(F)[C@@H](O)C[C@@]21C	> 100 µM (inactive)	> 100 µM (inactive)	> 100 µM (inactive)	> 100 µM (inactive)	–	> 100 µM (inactive)	> 100 µM (inactive)	–	> 100 µM (inactive)
C[C@H](CCC1SC1(C)C)C1CCC2(C)C3=C(CC[C@]12C)[C@@]1(C)CC[C@H](O)C(C)(C)C1CC3 (some centres undefined)	–	–	–	> 100 µM (inactive)	> 100 µM (inactive)	> 100 µM (inactive)	> 100 µM (inactive)	> 100 µM (inactive)	> 100 µM (inactive)
Cc1c(C(=O)/C=C/c2cccc3ccccc23)[n+]([O-])c2ccccc2[n+]1[O-]	6.84 µM (inactive)	11.9 µM (inactive)	18.1 µM (inactive)	10.6 µM (inactive)	8.02 µM (inactive)	–	11.7 µM (inactive)	14.4 µM (inactive)	4.85 µM (inactive)
COC(=O)C(C)Oc1ccc(O)cc1 (centres undefined)	> 100 µM (inactive)	> 100 µM (inactive)	> 100 µM (inactive)	> 100 µM (inactive)	> 100 µM (inactive)	–	> 100 µM (inactive)	> 100 µM (inactive)	19.6 µM (inactive)
COc1ccc(OC)c(N2CC(N)C2=O)c1 (centres undefined)	–	> 100 µM (inactive)	> 100 µM (inactive)	–	–	> 100 µM (inactive)	> 100 µM (inactive)	> 100 µM (inactive)	–
Cc1ccc2nc(NC(=O)C(=O)C(C#N)c3ccc(Cl)cc3)sc2c1 (centres undefined)	> 50 µM (inactive)	> 50 µM (inactive)	–	–	> 50 µM (inactive)	> 50 µM (inactive)	> 50 µM (inactive)	0.265 µM (active)	> 50 µM (inactive)
CC(C)Cc1ccc(C(C)/C=C2\CCC(CN(C)C)C2=O)cc1 (centres undefined)	17.5 µM (inactive)	17.6 µM (inactive)	–	10.7 µM (inactive)	9.35 µM (inactive)	20 µM (inactive)	–	17.6 µM (inactive)	19.2 µM (inactive)
O=C(CCc1ccccc1)On1nnc2ccccc2c1=O	> 100 µM (inactive)	> 100 µM (inactive)	–	> 100 µM (inactive)	> 100 µM (inactive)	–	> 100 µM (inactive)	–	> 100 µM (inactive)
C/C(=N\NS(=O)(=O)c1ccc(C)cc1)c1ccc[n+]([O-])n1	–	> 100 µM (inactive)	–	50.1 µM (inactive)	45.2 µM (inactive)	> 100 µM (inactive)	> 100 µM (inactive)	> 100 µM (inactive)	> 100 µM (inactive)
O=C(/C=C/c1ccccc1O)c1ccc([N+](=O)[O-])cc1	20.9 µM (inactive)	18.4 µM (inactive)	18.7 µM (inactive)	12.9 µM (inactive)	13.4 µM (inactive)	16.9 µM (inactive)	15.2 µM (inactive)	30.1 µM (inactive)	10.3 µM (inactive)
O=C1c2ccccc2C(=O)c2c1ccc(O)c2O [ATHRAQUINONES A]	–	72.4 µM (inactive)	–	43.4 µM (inactive)	43.2 µM (inactive)	39.1 µM (inactive)	35.9 µM (inactive)	–	–
COC1C(OC(=O)/C=C/C=C/C=C/C=C\C(=O)O)CCC2(CO2)C1C1(C)OC1CC=C(C)C (centres undefined)	–	> 100 µM (inactive)	> 100 µM (inactive)	> 100 µM (inactive)	> 100 µM (inactive)	> 100 µM (inactive)	> 100 µM (inactive)	–	> 100 µM (inactive)
N#Cc1cccnc1Cl	> 83.4 µM (inactive)	> 100 µM (inactive)	> 100 µM (inactive)	> 100 µM (inactive)	> 100 µM (inactive)	> 100 µM (inactive)	> 100 µM (inactive)	> 100 µM (inactive)	> 100 µM (inactive)
O=C1C2c3[nH]c4ccccc4c3C3CCCC3C2C(=O)N1c1ccccc1 (centres undefined)	> 100 µM (inactive)	> 100 µM (inactive)	–	> 100 µM (inactive)	> 100 µM (inactive)	12 µM (inactive)	> 100 µM (inactive)	–	> 100 µM (inactive)
